Reference: US20240027453A1, “METHOD FOR DETECTION AND QUANTITATIVE MONITORING OF INFECTIONS WITH HERPESVIRUSES” (The Trustees of Princeton University, priority 2020, published 2024)
Read-outs that look alike come from different tables or passages of the source.

Tested on: HCMV
Assay type: cell-based
Settings: for IRS1 (P09715) protein level / TRS1 (P09695) protein level / UL13 (P16755) protein level / UL36 (P16767) protein level / UL37 (P16778) protein level / UL122 (P19893) protein level / UL123 (P13202) protein level: IE
Procedure: In example herpesvirus PRM assay methods shown herein, cell pellets were lysed in 2% SDS, 100 mM NaCl, 0.5 mM EDTA, 50 mM Tris, pH 8.2, and 50 μg of protein was reduced and alkylated with 25 mM TCEP and 50 mM CAM respectively for 20 min at 70° C. Proteins were then precipitated via methanol chloroform precipitation (Wessel & Flugg, Anal Biochem. 138(1):141-143, 1984), resuspended in 50 mM HEPES, pH 8.2 and digested overnight with trypsin (50:1 protein:enzyme w/w ratio). Digested peptides were desalted by SDB-RPS StageTip as previously described (Lum et al., Cell Syst., 7(6):[…], 2018; Greco et al., Methods Mol Biol 1410:39-63, 2016; Federspiel & Cristea, Methods Mol Biol., 1977:115-143, 2019).
Peptides (1.0 μg on column) were analyzed by LC-MS/MS using a Dionex Ultimate 3000 UHPLC coupled online to an EASYSpray ion source and a Q Exactive HF. Peptides were separated on an EASYSpray C18 column (75 μm×25 cm) heated to 50° C. using a linear gradient of 5% B to 32% B over 60 min at a flow rate of 250 nL/min and were ionized at 1.7 kv. Mobile phase A consisted of 0.1% FA in H2O and mobile phase B consisted of 0.1% FA, 2.9% H2O in ACN.
The PRM method was controlled by a peptide inclusion list with retention time windows of 6 min for selected precursor ions.
The PRM assay was developed and analyzed using the open-source software Skyline (Maclean et al., Bioinformatics 26(7):966-968, 2010). Summed area under the curve of 3-4 transitions per peptide was used for quantitation. Targeted peptides were normalized to host protein loading control peptides. Peptide values for each sample were scaled to the average of each peptide across all runs. The average of multiple peptides was used as the inferred value for the protein measurement when more than one peptide was quantified (Federspiel et al., PLoS Biol. 17(9):e3000437. Doi: 10.1371/journal.pbio.3000437). PRM quantitation data were graphed using the Python Seaborn and Matplotlib libraries.
MRC5 primary human fibroblasts (HFs) (ATCC CCL-171) were used as the model system for HSV-1 and HCMV infections and were cultured in complete growth medium (DMEM supplemented with 10% fetal bovine serum and 1% penicillin-streptomycin antibiotics) at 37° C. and 5% CO2. iSLK.219 cells harboring latent KSHV (a gift from Dr. Britt Glaunsinger, University of California, Berkeley) were grown in complete growth medium supplemented with 500 μg/ml hygromycin (ThermoFisher Scientific, 10687010) at 37° C. and 5% CO2. All cells were used for experiments within a maximum of 10 passages.
Wild type HSV-1 strain 17+ (a gift from Beate Sodeik, Hannover Medical School, Hannover, Germany) was propagated as previously described (Diner et al., 2015). Briefly, PO stocks were generated by electroporating pBAC-HSV-1 into U-2 OS cells. […] In a similar manner, wild type HCMV strain AD169 was produced from BAC electroporation into HFs and working stocks were propagated by infecting HFs at a low level. In both cases, cell-associated virus was released by sonication, combined with supernatant virus, then concentrated by ultracentrifugation (20,000 rpm, 2 hours, 4° C. with SW28 swinging bucket rotor [Beckman Coulter]) over a 10% ficoll (HSV-1) or 20% sorbitol (HCMV) cushion. Virus stock titers were determined by plaque assay for HSV-1 or tissue culture infectious dose (TCID50) for HCMV and infections were performed at a multiplicity of infection (MOI) of 3.
12 hours prior to virus infection or reactivation, cells were treated with either the small molecule drug or DMSO/PBS control at an equivalent volume. […] For infection cycles lasting longer than 24 hours, small molecule drugs were re-added to the cell culture medium every 24 hours. Upon collection, cells were rinsed with PBS, scraped into a microcentrifuge tube, pelleted by centrifugation, and rinsed again with PBS.

Nc1c(S(=O)(=O)c2ccccc2)c2nc3ccccc3nc2n1-c1ccc(F)cc1 [CAY10602]
UL102 (P16827) protein level (timepoint 48, DE): 0.7866
UL104 (P16735) protein level (timepoint 48, DE): 0.07399
UL112/UL113 (P17151) protein level (timepoint 48, DE): 0.423
UL114 (P16769) protein level (timepoint 48, DE): 0.7709
UL119/UL118 (P16739) protein level (timepoint 48, DE): 0.3402
UL128 (P16837) protein level (timepoint 48, DE): 0.06729
US8 (P09730) protein level (timepoint 48, DE): 0.8905
US9 (P09729) protein level (timepoint 48, DE): 0.6117
US12 (P09721) protein level (timepoint 48, DE): 0.9446
US13 (P09720) protein level (timepoint 48, DE): 0.9123
US14 (P09719) protein level (timepoint 48, DE): 0.1589
US18 (P69334) protein level (timepoint 48, DE): 0.5367
US22 (P09722) protein level (timepoint 48, DE): 0.542
US23 (P09701) protein level (timepoint 48, DE): 0.4283
US24 (P09700) protein level (timepoint 48, DE): 0.42
US34 (P09709) protein level (timepoint 48, DE): 0.4118
gB (P06473) protein level (timepoint 48, DE): 0.09671
IRS1 (P09715) protein level (timepoint 48): 0.5813
TRS1 (P09695) protein level (timepoint 48): 0.446
UL13 (P16755) protein level (timepoint 48): 0.4405
UL36 (P16767) protein level (timepoint 48): 0.9117
UL37 (P16778) protein level (timepoint 48): 0.7557
UL122 (P19893) protein level (timepoint 48): 0.05121
UL123 (P13202) protein level (timepoint 48): 0.5672
CVC1 (P16799) protein level (timepoint 48, L): 0.1115
IR11 (P16809) protein level (timepoint 48, L): 0.3707
MCP (P16729) protein level (timepoint 48, L): 0.006609
SCP (Q7M6N6) protein level (timepoint 48, L): 0.004793
TRM2 (P16792) protein level (timepoint 48, L): 0.05665
UL22A (P16845) protein level (timepoint 48, L): 0.1015
UL25 (P16761) protein level (timepoint 48, L): 0.0624
UL29 (P16764) protein level (timepoint 48, L): 0.7556
UL30 (P16765) protein level (timepoint 48, L): 0.1538
UL31 (P16848) protein level (timepoint 48, L): 0.1445
UL43 (P16781) protein level (timepoint 48, L): 0.04992
UL52 (P16793) protein level (timepoint 48, L): 0.05111
UL80 (P16753) protein level (timepoint 48, L): 0.03588
UL82 (P06726) protein level (timepoint 48, L): 0.1061
UL88 (P16731) protein level (timepoint 48, L): 0.08754
UL94 (P16800) protein level (timepoint 48, L): 0.07429
UL99 (P13200) protein level (timepoint 48, L): 0.05165
UL103 (P16734) protein level (timepoint 48, L): 0.1567
UL117 (P16770) protein level (timepoint 48, L): 0.383
gH (P12824) protein level (timepoint 48, L): 0.06336
gL (P16832) protein level (timepoint 48, L): 0.05192
gM (P16733) protein level (timepoint 48, L): 0.02415
gN (P16795) protein level (timepoint 48, L): 0.1118
DUT (P16824) protein level (timepoint 48, LL): 0.2582
IR12 (P16810) protein level (timepoint 48, LL): 0.2908
TRM3 (P16732) protein level (timepoint 48, LL): 0.01695
TRX1 (P16783) protein level (timepoint 48, LL): 0.006112
TRX2 (P16728) protein level (timepoint 48, LL): 0.006041
UL24 (P16760) protein level (timepoint 48, LL): 0.1155
UL40 (P16780) protein level (timepoint 48, LL): 0.63
UL47 (P16784) protein level (timepoint 48, LL): 0.02023
UL49 (P16786) protein level (timepoint 48, LL): 0.187
UL69 (P16749) protein level (timepoint 48, LL): 0.1615
UL70 (P17149) protein level (timepoint 48, LL): 0.3937
UL83 (P06725) protein level (timepoint 48, LL): 0.02048
UL132 (P69338) protein level (timepoint 48, LL): 0.09662
US15 (P09718) protein level (timepoint 48, LL): 0.5168
CVC2 (P16726) protein level (timepoint 72, DE): 0.03983
DBP (P17147) protein level (timepoint 72, DE): 0.391
HELI (P16736) protein level (timepoint 72, DE): 0.5709
IR01 (P09710) protein level (timepoint 72, DE): 0.2588
NEC2 (P16791) protein level (timepoint 72, DE): 0.11
RIR1 (P16782) protein level (timepoint 72, DE): 0.1099
TRM1 (P16724) protein level (timepoint 72, DE): 0.1317
UL4 (P17146) protein level (timepoint 72, DE): 0.06765
UL26 (P16762) protein level (timepoint 72, DE): 0.1023
UL32 (P08318) protein level (timepoint 72, DE): 0.02678
UL34 (P16812) protein level (timepoint 72, DE): 0.09048
UL35 (P16766) protein level (timepoint 72, DE): 0.02871
UL38 (P16779) protein level (timepoint 72, DE): 0.5839
UL44 (P16790) protein level (timepoint 72, DE): 0.07887
UL48 (P16785) protein level (timepoint 72, DE): 0.0801
UL54 (P08546) protein level (timepoint 72, DE): 0.6639
UL71 (P16823) protein level (timepoint 72, DE): 0.3054
UL78 (P16751) protein level (timepoint 72, DE): 0.3616
UL84 (P16727) protein level (timepoint 72, DE): 0.08785
UL95 (P16801) protein level (timepoint 72, DE): 0.157
UL96 (P16787) protein level (timepoint 72, DE): 0.2632
UL97 (P16788) protein level (timepoint 72, DE): 0.1687
UL98 (P16789) protein level (timepoint 72, DE): 0.2967
UL102 (P16827) protein level (timepoint 72, DE): 0.7626
UL104 (P16735) protein level (timepoint 72, DE): 0.1005
UL112/UL113 (P17151) protein level (timepoint 72, DE): 0.3808
UL114 (P16769) protein level (timepoint 72, DE): 0.6517
UL119/UL118 (P16739) protein level (timepoint 72, DE): 0.4195
UL128 (P16837) protein level (timepoint 72, DE): 0.04728
US8 (P09730) protein level (timepoint 72, DE): 0.5794
US9 (P09729) protein level (timepoint 72, DE): 0.5649
US12 (P09721) protein level (timepoint 72, DE): 0.4239
US13 (P09720) protein level (timepoint 72, DE): 0.5351
US14 (P09719) protein level (timepoint 72, DE): 0.1559
US18 (P69334) protein level (timepoint 72, DE): 0.5415
US22 (P09722) protein level (timepoint 72, DE): 0.4813
US23 (P09701) protein level (timepoint 72, DE): 0.3933
US24 (P09700) protein level (timepoint 72, DE): 0.3114
US34 (P09709) protein level (timepoint 72, DE): 0.2066
gB (P06473) protein level (timepoint 72, DE): 0.1022
IRS1 (P09715) protein level (timepoint 72): 0.5625
TRS1 (P09695) protein level (timepoint 72): 0.5284
UL13 (P16755) protein level (timepoint 72): 0.3604
UL36 (P16767) protein level (timepoint 72): 0.601
UL37 (P16778) protein level (timepoint 72): 0.719
UL122 (P19893) protein level (timepoint 72): 0.05427
UL123 (P13202) protein level (timepoint 72): 0.4451
CVC1 (P16799) protein level (timepoint 72, L): 0.09678
